{"source": "patent US10197556B2", "about": "“Methods to detect non-genotoxic carcinogens using flatworms” (Universiteit Gent, priority 2015, dated 2019)", "key": {"Macrostomum lignano": {"tested_on": "Macrostomum lignano", "conditions": "for prediction by the assay in the experiments: outcome over the experiments", "experimental": "Cultures of Macrostomum lignano (37) were grown in artificial seawater (ASW) enriched with f/2-medium (40) and fed ad libitum with the diatom Nitzschia curvilineata (PAE culture collection; UGent on the World Wide Web at pae.ugent.be/collection.htm), as described in references 41 and 43.\nOne week before starting chemical exposure, a six-well plate filled with 4 ml f/2 medium (Novolab NV) was inoculated with diatoms to achieve an ad libitum food source during exposure. Starvation of the worms leads to a decrease in stem cell proliferation (as shown in Nimeth et al (29)), which would interfere with stem cell proliferation, the endpoint of the assay. Before the start of exposure, fifteen adult worms per condition were pipetted in each well, which was then emptied by pipetting without drying out the worms and refilled with f/2 medium (control), if required, F2+0.05% DMSO (vehicle control) and a concentration of the chemical.\nThe DMSO concentration in the vehicle control never exceeded 0.05%. This represented the maximum DMSO percentage in the chemical's highest test concentration.\nTo select the appropriate compound concentration, first, a broad concentration range-finding experiment (spacing factor 10; two weeks exposure) was carried out. Based on this pilot range finding, a fine-tuned range finding (spacing factor less than or equal to 2; for D-Mannitol factor 5) was chosen to conduct the assay. The maximum concentration tested depended on the test compound solubility and the requirement of a survival of twelve out of fifteen worms at the end of exposure.\nFor all chemicals investigated in this disclosure, the medium was refreshed weekly.\nAfter a preliminary test (CP as reference) on different exposure times ranging from two days to six weeks, the worms were exposed for a period of two weeks, after which they were subjected to phosphorylated histone H3 immunostaining (PH3) to quantify mitosis.\nTo quantify mitotic cells in whole mount specimens, the mitotic marker anti-PH3 was used. The staining was performed by first relaxing the animals in a 1:1 mixture of MgCl2.6H2O (7.14%) and ASW (5 minutes), then in MgCl2.6H2O (7.14%) (undiluted, 5 minutes), followed by fixation in paraformaldehyde (PFA, 4% in PBS, 60 minutes). Animals were then rinsed with phosphate-buffered saline (PBS, 3×5 minutes) and blocked in bovine serum albumin, containing TRITON® (BSA-T, 0.1% TRITON® X-100, 60 minutes). Subsequently, animals were incubated in primary rabbit-anti-phos-H3 (1:300 in BSA-T, overnight, 4° C., Upstate Biotechnology), rinsed in PBS (3×5 minutes) and incubated in secondary TRITC-conjugated swine-anti-rabbit (1:150 in BSA-T, 1 hour, DAKO). Finally, animals were washed with PBS (3×5 minutes) and slides were mounted using Vectashield (Vector Laboratories). Slides were analyzed using a Leica 2500P microscope equipped with epifluorescence, a 40× objective and a DFC360FX CCD camera.\nAll somatic PH3-positive cells were counted manually using the Image J cell counter plugin (44) (FIG. 1). Gonadal PH3+ cells were not included in the analysis because of 1) the high density of divisions in that region that can lead to overlapping signals and 2) the germ line representing a separate population of cells, differentially tolerant to exposure, which can result in quantification variability.\nThe cut-off value of the assay was determined based on density plots (R version 2.15.3; (33)) of the number of mitotic stem cells of all experiments for controls (sea water and DMSO), non-carcinogens, genotoxic carcinogens and non-genotoxic carcinogens. The cut-off value of 30 lays in the tail of the distribution corresponding to the 97.5 percentile or two standard deviations.\nConcentrations resulting in the death of 20% of the worms (three out of fifteen) during exposure were considered cytotoxic and were not analyzed."}, "Schmidtea mediterranea": {"tested_on": "Schmidtea mediterranea", "experimental": "Asexual strains of the freshwater planarian Schmidtea mediterranea (38, 45) were maintained in culture medium, consisting of water, that was first deionized and then distilled, and to which the following nutrients were added: 1.6 mM NaCl, 1.0 mM CaCl2, 1.0 mM MgSO4, 0.1 mM MgCl2, 0.1 mM KCl and 1.2 mM NaHCO3. The animals were continuously kept in the dark at a room temperature of 20° C. and were fed once a week with veal liver.\nExperiments were performed with regenerating animals (heads and tails) to accelerate initial responses to carcinogenic compounds, as this process of massive cell proliferation, migration and differentiation resembles the process of carcinogenesis, and, possibly differently affects the dynamics of stem cells toward genotoxic and non-genotoxic carcinogen exposures (16, 32, 39).\nIn each experimental condition, animals were cut transversally immediately before exposure to a genotoxic, non-genotoxic or non-carcinogen concentration, medium (control) or medium with DMSO (vehicle control). Exposures were performed in six-well plates (4 ml/well). To exclude intrinsic effects of DMSO on cell proliferation, the DMSO vehicle concentration never exceeded 0.05% and interaction effects between the test compound and DMSO were investigated using a two-way ANOVA (32). […] Animals were fed once a week with veal liver and starved for one week before stem cell proliferation measurements. Stem cell proliferation was measured after one day of regeneration (the mitotic minimum of regeneration), after three days (the mitotic maximum of regeneration), after one week (the end stage of regeneration) after two and six weeks (during homeostasis), as well as at the appearance of organismal phenotypes (15, 46, 47). Phenotypic effects were monitored daily with a stereo microscope.\nAn in vivo study allows the investigation of the entire organism's response to carcinogenic compounds and, as such, makes it possible to link carcinogen-induced stem cell proliferation with the organism's phenotype. Conditions were subdivided according to their phenotypic effects into concentrations that caused no observable phenotypic effects (category 1), phenotypic effects (category 2, described in phenotypic effect screening) and concentrations that induced organismal death (category 3). Phenotypic parameters that were monitored daily were tissue regression, lesion, blisters, bloating, pigmentation, behavior, regenerative success, body size, tissue outgrowth, flattened posture and organismal death (35). Stem cell proliferation was quantified at the appearance of systemic effects (category 2 concentrations)."}, "[1]": {"conditions": "0.3125 μM, Experiment 1, two weeks exposure"}, "[2]": {"conditions": "0.3125 μM, Experiment 3, two weeks exposure"}, "[3]": {"conditions": "0.625 μM, Experiment 1, two weeks exposure"}, "[4]": {"conditions": "0.625 μM, Experiment 2, two weeks exposure"}, "[5]": {"conditions": "0.625 μM, Experiment 3, two weeks exposure"}, "[6]": {"conditions": "category 2 concentrations, three days (MMS), one week (4NQO), two weeks (S-PB, CPZ, MPH)"}, "[7]": {"conditions": "asexual strain, Schmidtea mediterranea, in vivo"}}, "note": "Structures can show the parent of a compound that is named as a salt. Where two headings read alike, the source gives them in different places.", "data": [{"compound": "CC/C(=C(/CC)c1ccc(O)cc1)c1ccc(O)cc1", "note": "[Diethylbestrol, Diethylstilbestrol]", "values": [{"measurement": "Pred", "setting": "Macrostomum lignano; [1]", "value": "+ (+ in case 20% or more worms having 30 or more mitotic stem cells)"}, {"measurement": "proportion of worms having 30 or more mitotic stem cells", "setting": "Macrostomum lignano; [1]", "value": 100, "unit": "%"}, {"measurement": "proportion of worms having 30 or more mitotic stem cells", "setting": "Macrostomum lignano; 0.3125 μM, Experiment 2, two weeks exposure", "value": 12.5, "unit": "%"}, {"measurement": "Pred", "setting": "Macrostomum lignano; [2]", "value": "+ (+ in case 20% or more worms having 30 or more mitotic stem cells)"}, {"measurement": "proportion of worms having 30 or more mitotic stem cells", "setting": "Macrostomum lignano; [2]", "value": 33.3, "unit": "%"}, {"measurement": "Pred", "setting": "Macrostomum lignano; [3]", "value": "+ (+ in case 20% or more worms having 30 or more mitotic stem cells)"}, {"measurement": "proportion of worms having 30 or more mitotic stem cells", "setting": "Macrostomum lignano; [3]", "value": 27.3, "unit": "%"}, {"measurement": "Pred", "setting": "Macrostomum lignano; [4]", "value": "+ (+ in case 20% or more worms having 30 or more mitotic stem cells)"}, {"measurement": "proportion of worms having 30 or more mitotic stem cells", "setting": "Macrostomum lignano; [4]", "value": 50, "unit": "%"}, {"measurement": "Pred", "setting": "Macrostomum lignano; [5]", "value": "+ (+ in case 20% or more worms having 30 or more mitotic stem cells)"}, {"measurement": "proportion of worms having 30 or more mitotic stem cells", "setting": "Macrostomum lignano; [5]", "value": 22.2, "unit": "%"}, {"measurement": "Prediction of the experiment", "setting": "Macrostomum lignano; Experiment 1, all concentrations, two weeks exposure", "value": "Pos"}, {"measurement": "Prediction of the experiment", "setting": "Macrostomum lignano; Experiment 2, all concentrations, two weeks exposure", "value": "Pos"}, {"measurement": "Prediction of the experiment", "setting": "Macrostomum lignano; Experiment 3, all concentrations, two weeks exposure", "value": "Pos"}, {"measurement": "Overall prediction", "setting": "Macrostomum lignano; final prediction call over three experiments", "value": "Pos"}, {"measurement": "prediction by the assay in the experiments", "setting": "Macrostomum lignano; two weeks exposure", "value": "predicted positive for all three experiments"}]}, {"compound": "COS(C)(=O)=O", "note": "[MMS, methyl methane sulphonate]", "values": [{"measurement": "Cat. 2 concentrations: Phenotypic effects", "setting": "Schmidtea mediterranea; MMS, exposure three days", "value": "400 to 500", "unit": "µM"}, {"measurement": "Cat. 3 concentrations: Mortality", "setting": "Schmidtea mediterranea; MMS, exposure three days", "value": 1, "unit": "mM"}, {"measurement": "Number of animals with Behavior effects", "setting": "Schmidtea mediterranea; [6]", "value": "14/14"}, {"measurement": "Number of animals with Body size effects", "setting": "Schmidtea mediterranea; [6]", "value": "10/14"}, {"measurement": "Number of animals with Pigmentation", "setting": "Schmidtea mediterranea; [6]", "value": "1/14"}, {"measurement": "Number of animals with Regenerative success effects", "setting": "Schmidtea mediterranea; [6]", "value": "14/14"}, {"measurement": "Number of animals with Tissue regression", "setting": "Schmidtea mediterranea; [6]", "value": "3/14"}]}, {"compound": "CN(C)CCN(Cc1cccs1)c1ccccn1", "note": "[MPH, methapyrilene hydrochloride]", "values": [{"measurement": "Number of animals with Behavior effects", "setting": "Schmidtea mediterranea; [7]", "value": "8/8"}, {"measurement": "Number of animals with Body size effects", "setting": "Schmidtea mediterranea; [7]", "value": "8/8"}]}, {"compound": "CCC1(c2ccccc2)C(=O)NC(=O)NC1=O", "note": "[S-PB, sodium phenobarbital]", "values": [{"measurement": "Cat. 1 concentrations: No effects on phenotype", "setting": "Schmidtea mediterranea; S-PB, exposure two weeks", "value": 1, "unit": "mM"}, {"measurement": "Cat. 2 concentrations: Phenotypic effects", "setting": "Schmidtea mediterranea; S-PB, exposure two weeks", "value": 2000, "unit": "µM"}, {"measurement": "Cat. 3 concentrations: Mortality", "setting": "Schmidtea mediterranea; S-PB, exposure two weeks", "value": 4, "unit": "mM"}, {"measurement": "Number of animals with Behavior effects", "setting": "Schmidtea mediterranea; [6]", "value": "2/2"}]}, {"compound": "Cc1noc(NS(=O)(=O)c2ccc(N)cc2)c1C", "note": "[Sulfisoxazole]", "values": [{"measurement": "proportion of worms having 30 or more mitotic stem cells", "setting": "Macrostomum lignano; […] μM, Experiment 1, two weeks exposure", "value": 0, "unit": "%"}, {"measurement": "proportion of worms having 30 or more mitotic stem cells", "setting": "Macrostomum lignano; […] μM, Experiment 3, two weeks exposure", "value": 0, "unit": "%"}, {"measurement": "proportion of worms having 30 or more mitotic stem cells", "setting": "Macrostomum lignano; 500 μM, Experiment 1, two weeks exposure", "value": 0, "unit": "%"}, {"measurement": "proportion of worms having 30 or more mitotic stem cells", "setting": "Macrostomum lignano; 500 μM, Experiment 2, two weeks exposure", "value": 11.1, "unit": "%"}, {"measurement": "proportion of worms having 30 or more mitotic stem cells", "setting": "Macrostomum lignano; 500 μM, Experiment 3, two weeks exposure", "value": 0, "unit": "%"}, {"measurement": "proportion of worms having 30 or more mitotic stem cells", "setting": "Macrostomum lignano; 1000 μM, Experiment 1, two weeks exposure", "value": 0, "unit": "%"}, {"measurement": "proportion of worms having 30 or more mitotic stem cells", "setting": "Macrostomum lignano; 1000 μM, Experiment 2, two weeks exposure", "value": 0, "unit": "%"}, {"measurement": "proportion of worms having 30 or more mitotic stem cells", "setting": "Macrostomum lignano; 1000 μM, Experiment 3, two weeks exposure", "value": 0, "unit": "%"}, {"measurement": "concentration up to which predicted negative", "setting": "Macrostomum lignano; all three experiments, two weeks exposure", "value": "up to 1 mM"}, {"measurement": "lethality of the worms", "setting": "Macrostomum lignano; concentrations higher than the highest analyzed (Sox >1 mM, CP >100 μM, 4NQO >0.5 μM)", "value": "greater than 20%"}, {"measurement": "prediction by the assay in the experiments", "setting": "Macrostomum lignano; two weeks exposure", "value": "predicted negative for all three experiments"}]}]}
